PubChem BioAssay AID328 (DTP/NCI, 2004)
Values joined by “and” are separate entries in the source; they are usually repeats but may differ in a detail not shown here. Equal values may be shown once. Toxic doses and inconclusive results are not listed.

Test system: BDF1 mice, P388 leukemia ip, median survival T/C
Assay: NCI In Vivo Anticancer Drug Screen. Data for tumor model P388 Leukemia (intraperitoneal) in B6D2F1 (BDF1) mice
Settings: endpoint: median survival time, higher = longer survival
Procedure, shortened: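 Survival ratio, drug arm over vehicle arm, in mice with a transplanted tumour.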

[1] = dose: 50.0 mg/kg/injection, schedule: Q04DX003 (ip), vehicle: saline sonified
[2] = dose: 100.0 mg/kg/injection, schedule: Q04DX003 (ip), vehicle: saline sonified
[3] = dose: 200.0 mg/kg/injection, schedule: Q04DX003 (ip), vehicle: saline sonified
[4] = dose: 100.0 mg/kg/injection, schedule: Q01DX009 (ip), vehicle: saline
[5] = dose: 100.0 mg/kg/injection, schedule: Q04DX003 (ip), vehicle: saline
[6] = dose: 200.0 mg/kg/injection, schedule: Q04DX003 (ip), vehicle: saline
[7] = dose: 400.0 mg/kg/injection, schedule: Q01DX009 (ip), vehicle: saline
[8] = dose: 400.0 mg/kg/injection, schedule: Q04DX003 (ip), vehicle: saline
[9] = dose: 50.0 mg/kg/injection, schedule: Q01DX009 (ip), vehicle: saline with Tween-80
[10] = dose: 100.0 mg/kg/injection, schedule: Q01DX009 (ip), vehicle: saline with Tween-80
[11] = dose: 100.0 mg/kg/injection, schedule: Q04DX003 (ip), vehicle: saline with Tween-80
[12] = dose: 200.0 mg/kg/injection, schedule: Q04DX003 (ip), vehicle: saline with Tween-80
[13] = dose: 400.0 mg/kg/injection, schedule: Q04DX003 (ip), vehicle: saline with Tween-80
[14] = dose: 25.0 mg/kg/injection, schedule: Q04DX003 (ip), vehicle: saline with Tween-80
[15] = dose: 200.0 mg/kg/injection, schedule: Q01DX009 (ip), vehicle: saline with Tween-80
[16] = dose: 400.0 mg/kg/injection, schedule: Q01DX009 (ip), vehicle: saline with Tween-80

With `Clc1ccc(-c2n[se]c(-c3ccc(Cl)cc3)n2)cc1` the T/C (dose: 0.19 mg/kg/injection, schedule: Q01DX009 (ip), vehicle: saline with Tween-80) was 98 % of control, the T/C (dose: 0.39 mg/kg/injection, schedule: Q01DX009 (ip), vehicle: saline with Tween-80) was 101 % of control and the T/C (dose: 0.78 mg/kg/injection, schedule: Q01DX009 (ip), vehicle: saline with Tween-80) was 95 % of control. The T/C (dose: 1.56 mg/kg/injection, schedule: Q01DX009 (ip), vehicle: saline with Tween-80) was 96 % of control.
`Clc1ccc(N2CCN(CCCN3CCN(c4cccc(Cl)c4)CC3)CC2)cc1` was tested, and the T/C [1] was 100 % of control, the T/C [2] was 100 % of control and the T/C [3] was 91 % of control.
With `[Cl][Hg][CH2]CC1CC=CCC1` (stereo unspecified) the T/C (dose: 6.25 mg/kg/injection, schedule: Q01DX009 (ip), vehicle: saline with Tween-80) was 113 % of control, the T/C (dose: 6.25 mg/kg/injection, schedule: Q04DX003 (ip), vehicle: saline sonified) was 104 % of control and the T/C (dose: 12.5 mg/kg/injection, schedule: Q01DX009 (ip), vehicle: saline with Tween-80) was 117 % of control. The T/C (dose: 12.5 mg/kg/injection, schedule: Q04DX003 (ip), vehicle: saline sonified) was 122 % of control and the T/C (dose: 25.0 mg/kg/injection, schedule: Q04DX003 (ip), vehicle: saline sonified) was 118 % of control.
`COC(=O)C(N)CSC` (stereo unspecified) was tested, and the T/C [4] was 103 % of control, the T/C [5] was 113 % of control and the T/C (dose: 200.0 mg/kg/injection, schedule: Q01DX009 (ip), vehicle: saline) was 106 % of control. The T/C [6] was 90 % of control, the T/C [7] was 106 % of control and the T/C [8] was 104 % of control.
For `CCOc1ccc(NC(=O)OCCN2CCN(CCc3ccccc3)C(C)C2)cc1` (stereo unspecified), the T/C [9] was 94 % of control and the T/C [10] was 98 % of control.
In the case of `O=[N+]([O-])c1ccc2nnn(OC3CCCC3)c2c1`, the T/C [11] is reported as 98 % of control, the T/C [12] is reported as 101 % of control and the T/C [13] is reported as 88 % of control.
For `Clc1nc(Cl)c(Cl)nc1Cl`, the T/C (dose: 25.0 mg/kg/injection, schedule: Q01DX009 (ip), vehicle: saline with Tween-80) was 100 % of control, the T/C [14] was 97 % of control and the T/C [9] was 97 % of control. For the same compound, the T/C (dose: 50.0 mg/kg/injection, schedule: Q04DX003 (ip), vehicle: saline with Tween-80) was 113 % of control, the T/C [10] was 113 % of control and the T/C [11] was 108 % of control. The T/C [15] was 113 % of control, the T/C [12] was 97 % of control and the T/C [16] was 106 % of control. For the same compound, the T/C [13] was 106 % of control.
With `CC1(C#N)CCc2c(ccc3ccccc23)C1=O` (stereo unspecified) the T/C (dose: 50.0 mg/kg/injection, schedule: Q04DX003 (ip), vehicle: other) was 91 % of control, the T/C (dose: 100.0 mg/kg/injection, schedule: Q04DX003 (ip), vehicle: other) was 95 % of control and the T/C (dose: 200.0 mg/kg/injection, schedule: Q04DX003 (ip), vehicle: other) was 100 % of control.
`CC1(C)C(N2CCOCC2)C(c2ccccc2)S1(=O)=O` (stereo unspecified) was tested, and the T/C (dose: 100.0 mg/kg/injection, schedule: Q01DX001 (ip), vehicle: saline with Tween-80) was 100 % of control and the T/C (dose: 400.0 mg/kg/injection, schedule: Q01DX001 (ip), vehicle: saline with Tween-80) was 95 % of control.
`CCOP(=S)(OCC)Oc1cnn(C)c(=S)c1Cl` was tested, and the T/C (dose: 50.0 mg/kg/injection, schedule: Q01DX005 (ip), vehicle: saline with Tween-80) was 98 % of control, the T/C (dose: 100.0 mg/kg/injection, schedule: Q01DX005 (ip), vehicle: saline with Tween-80) was 101 % of control and the T/C (dose: 200.0 mg/kg/injection, schedule: Q01DX005 (ip), vehicle: saline with Tween-80) was 108 % of control.
For `[OH-].[OH-].[Pd+2].c1ccc(CSc2ncnc3nc[nH]c23)cc1.c1ccc(CSc2ncnc3nc[nH]c23)cc1.c1ccc(CSc2ncnc3nc[nH]c23)cc1.c1ccc(CSc2ncnc3nc[nH]c23)cc1`, the T/C [10] was 90 % of control, the T/C [11] was 90 % of control and the T/C [15] was 90 % of control. The T/C [12] was 90 % of control and the T/C [16] was 90 % of control.
For `COC(=O)C(Sc1ccc(Cl)cc1)C1SC(=S)N(Cc2ccccc2)C1=O` (stereo unspecified), the T/C [9] was 104 % of control, the T/C [10] was 118 % of control and the T/C [15] was 109 % of control.
For `O=c1c(Cl)c2cc3c(cc2c2ccccc12)nc1ccccc1n3-c1ccccc1`, the T/C (dose: 12.5 mg/kg/injection, schedule: Q01DX001 (ip), vehicle: saline with Tween-80) was 88 % of control and the T/C (dose: 25.0 mg/kg/injection, schedule: Q01DX001 (ip), vehicle: saline with Tween-80) was 88 % of control.
For `O=Cc1[nH]c(=S)[nH]c(=O)c1Cc1cccc(Cl)c1`, the T/C [10] was 115 % of control, the T/C [11] was 113 % of control and the T/C [12] was 118 % of control. The T/C [13] was 113 % of control.
With `CC(CS(=O)(=O)O)NC(CO)(CO)CO` (stereo unspecified) the T/C [4] was 87 % of control, the T/C [5] was 100 % of control and the T/C [6] was 109 % of control. For the same compound, the T/C [7] was 100 % of control and the T/C [8] was 90 % of control.
`COc1ccc2nc3cc(Cl)ccc3c(Cl)c2c1` was tested, and the T/C [10] was 95 % of control, the T/C [11] was 109 % of control and the T/C [15] was 95 % of control. For the same compound, the T/C [12] was 100 % of control, the T/C [16] was 95 % of control and the T/C [13] was 109 % of control.
In the case of `Cc1cccc(C(=O)NN)c1O`, the T/C (dose: 25.0 mg/kg/injection, schedule: Q01DX009 (ip), vehicle: saline + alcohol) is reported as 92 % of control and the T/C (dose: 100.0 mg/kg/injection, schedule: Q01DX009 (ip), vehicle: saline + alcohol) is reported as 97 % of control.
With `C=CCn1c2ccccc2c2cc3cnccc3c(C)c21` the T/C [1] was 95 % of control, the T/C [2] was 90 % of control and the T/C [3] was 95 % of control.
In the case of `CCOC(=O)C1C(=O)C(CN(CCCl)CCCl)C(=O)C(C(=O)OCC)C1c1ccc(O)cc1` (stereo unspecified), the T/C (dose: 0.75 mg/kg/injection, schedule: Q01DX009 (ip), vehicle: Klucel (hydroxypropylcellulose) (HPC)) is reported as 180 % of control, the T/C (dose: 1.5 mg/kg/injection, schedule: Q01DX009 (ip), vehicle: Klucel (hydroxypropylcellulose) (HPC)) is reported as 190 % of control and the T/C (dose: 3.0 mg/kg/injection, schedule: Q01DX009 (ip), vehicle: Klucel (hydroxypropylcellulose) (HPC)) is reported as 183 % of control. The T/C (dose: 3.13 mg/kg/injection, schedule: Q04DX003 (ip), vehicle: saline with Tween-80) was 153 % of control, the T/C (dose: 6.0 mg/kg/injection, schedule: Q01DX009 (ip), vehicle: Klucel (hydroxypropylcellulose) (HPC)) was 266 % of control and the T/C (dose: 6.25 mg/kg/injection, schedule: Q01DX009 (ip), vehicle: Klucel (hydroxypropylcellulose) (HPC)) was 185 % of control. For the same compound, the T/C (dose: 6.25 mg/kg/injection, schedule: Q04DX003 (ip), vehicle: Klucel (hydroxypropylcellulose) (HPC)) was 180 % of control, the T/C (dose: 6.25 mg/kg/injection, schedule: Q04DX003 (ip), vehicle: saline with Tween-80) was 160 % of control and the T/C (dose: 11.0 mg/kg/injection, schedule: Q01DX009 (ip), vehicle: Klucel (hydroxypropylcellulose) (HPC)) was 209 % of control. For the same compound, the T/C (dose: 12.5 mg/kg/injection, schedule: Q01DX009 (ip), vehicle: Klucel (hydroxypropylcellulose) (HPC)) was 269 % of control, the T/C (dose: 12.5 mg/kg/injection, schedule: Q04DX003 (ip), vehicle: Klucel (hydroxypropylcellulose) (HPC)) was 195 % of control and the T/C (dose: 12.5 mg/kg/injection, schedule: Q04DX003 (ip), vehicle: saline with Tween-80) was 225 % of control. The T/C (dose: 16.5 mg/kg/injection, schedule: Q01DX009 (ip), vehicle: Klucel (hydroxypropylcellulose) (HPC)) was 232 % of control, the T/C (dose: 20.0 mg/kg/injection, schedule: Q04DX003 (ip), vehicle: Klucel (hydroxypropylcellulose) (HPC)) was 105 % of control and the T/C (dose: 25.0 mg/kg/injection, schedule: Q01DX009 (ip), vehicle: Klucel (hydroxypropylcellulose) (HPC)) was 243 % of control and 95 % of control and 190 % of control. For the same compound, the T/C (dose: 25.0 mg/kg/injection, schedule: Q04DX003 (ip), vehicle: Klucel (hydroxypropylcellulose) (HPC)) was 182 % of control, the T/C [14] was 260 % of control and 267 % of control and the T/C (dose: 37.5 mg/kg/injection, schedule: Q01DX009 (ip), vehicle: Klucel (hydroxypropylcellulose) (HPC)) was 103 % of control. For the same compound, the T/C (dose: 50.0 mg/kg/injection, schedule: Q04DX003 (ip), vehicle: Klucel (hydroxypropylcellulose) (HPC)) was 89 % of control, the T/C (dose: 80.0 mg/kg/injection, schedule: Q04DX003 (ip), vehicle: Klucel (hydroxypropylcellulose) (HPC)) was 155 % of control and the T/C (dose: 118.0 mg/kg/injection, schedule: Q04DX003 (ip), vehicle: Klucel (hydroxypropylcellulose) (HPC)) was 160 % of control. The T/C (dose: 177.0 mg/kg/injection, schedule: Q04DX003 (ip), vehicle: Klucel (hydroxypropylcellulose) (HPC)) was 175 % of control, the T/C (dose: 200.0 mg/kg/injection, schedule: Q04DX003 (ip), vehicle: Klucel (hydroxypropylcellulose) (HPC)) was 159 % of control and the T/C (dose: 266.0 mg/kg/injection, schedule: Q04DX003 (ip), vehicle: Klucel (hydroxypropylcellulose) (HPC)) was 170 % of control. The T/C (dose: 400.0 mg/kg/injection, schedule: Q04DX003 (ip), vehicle: Klucel (hydroxypropylcellulose) (HPC)) was 180 % of control and 195 % of control.
